# According to ChEMBL document CHEMBL1136114, “Advances Toward new antidepressants beyond SSRIs: 1-aryloxy-3-piperidinylpropan-2-ols with dual 5-HT(1A) receptor antagonism/SSRI activities. Part 2” (Bioorg Med Chem Lett, 2003):
# Key:
# [1] = target: T1, 5-hydroxytryptamine receptor 1A (Homo sapiens) (UniProt P08908); assay: Stimulation of binding of [35S]GTP-gamma-S, to G protein mediated by human cloned 5-hydroxytryptamine 1A receptor tested in vitro at 1 uM.; assay type: functional
# T1 sequence (whole entry): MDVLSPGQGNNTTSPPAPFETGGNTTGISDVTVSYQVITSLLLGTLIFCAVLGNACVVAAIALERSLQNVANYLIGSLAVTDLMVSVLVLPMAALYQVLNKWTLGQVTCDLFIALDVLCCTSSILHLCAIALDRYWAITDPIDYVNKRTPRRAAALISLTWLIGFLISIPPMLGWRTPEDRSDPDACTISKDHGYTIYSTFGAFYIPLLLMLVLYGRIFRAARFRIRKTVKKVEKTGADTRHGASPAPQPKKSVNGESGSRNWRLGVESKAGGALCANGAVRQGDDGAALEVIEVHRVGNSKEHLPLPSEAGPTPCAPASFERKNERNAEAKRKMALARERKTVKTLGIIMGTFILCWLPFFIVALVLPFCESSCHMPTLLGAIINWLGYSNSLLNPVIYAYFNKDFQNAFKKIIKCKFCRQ
# [2] = target: T1, 5-hydroxytryptamine receptor 1A (Homo sapiens); assay: (§1) Inhibition of 5-HT induced [35S]GTP-gamma-S, binding at human cloned 5-HT 1A receptors.; assay type: functional
# [3] = target: T2, 5-hydroxytryptamine receptor 1A (Homo sapiens, UniProt P08908); assay: as §1; assay type: functional
# T2 sequence (P08908 whole entry): T1 sequence (whole entry)
# [4] = target: Sodium-dependent serotonin transporter (Rattus norvegicus, UniProt P31652); assay: In vitro affinity at the 5-HT reuptake site using [3H]paroxetine as radioligand in rat frontal cortex membranes; assay type: cell membranes, Membrane
# Sequence of Sodium-dependent serotonin transporter (P31652 whole entry): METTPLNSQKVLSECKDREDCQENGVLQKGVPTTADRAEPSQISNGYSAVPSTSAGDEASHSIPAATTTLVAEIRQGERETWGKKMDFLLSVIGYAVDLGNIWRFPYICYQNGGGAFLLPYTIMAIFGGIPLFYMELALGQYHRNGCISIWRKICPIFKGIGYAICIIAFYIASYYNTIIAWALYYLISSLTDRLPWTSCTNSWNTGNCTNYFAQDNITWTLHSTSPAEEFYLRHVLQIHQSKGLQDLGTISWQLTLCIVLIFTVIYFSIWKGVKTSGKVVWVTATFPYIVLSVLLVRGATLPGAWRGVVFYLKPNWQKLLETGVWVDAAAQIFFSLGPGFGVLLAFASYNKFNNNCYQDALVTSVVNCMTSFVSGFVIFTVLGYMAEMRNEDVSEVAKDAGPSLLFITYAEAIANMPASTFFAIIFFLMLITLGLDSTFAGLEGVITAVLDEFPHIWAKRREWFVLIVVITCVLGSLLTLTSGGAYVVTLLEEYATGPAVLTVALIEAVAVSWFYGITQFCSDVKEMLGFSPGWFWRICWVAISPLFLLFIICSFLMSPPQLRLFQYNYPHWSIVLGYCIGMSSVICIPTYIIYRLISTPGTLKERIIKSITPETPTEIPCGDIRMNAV
# [5] = target: T2, 5-hydroxytryptamine receptor 1A; assay: In vitro binding affinity at 5-hydroxytryptamine 1A receptor by [3H]8-OH-DPAT displacement.
# [6] = target: T1, 5-hydroxytryptamine receptor 1A (Homo sapiens); assay: In vitro binding affinity towards 5-hydroxytryptamine 1A receptor using [3H]8-OH-DPAT as radioligand; details: concentration not given here
SMILES,Stimulation [1],Emin [2],Ki [3],Ki [4],Ki [5],inhibition [6]
COc1cccc2sc([C@@H]3C[C@H]4CC[C@@H](C3)N4C[C@H](O)COc3cccc4[nH]ccc34)cc12 (stereo in doubt; exo) [listing 1 of 2 here],7.22%,4.02%,,,,
COc1ccc2cc([C@@H]3CCN(C[C@H](O)COc4cccc5[nH]ccc45)[C@@H](C)C3)sc2c1,5.26%,6.67%,2.98 nM,1.1 nM,14.5 nM,
C[C@H]1C[C@H](c2cc3cc(F)ccc3s2)CCN1C[C@H](O)COc1cccc2[nH]ccc12,7.68%,7.69%,5.67 nM,0.39 nM,6.4 nM,
C[C@H]1C[C@H](c2cc3cc(Cl)ccc3s2)CCN1C[C@H](O)COc1cccc2[nH]ccc12,3.97%,6.81%,5.26 nM,0.58 nM,8.34 nM,
C[C@@H]1C[C@H](c2cc3cc(F)ccc3s2)CCN1C[C@H](O)COc1cccc2[nH]ccc12,7.21%,10.8%,1.76 nM,3.53 nM,8.77 nM,
Cc1cccc2sc([C@@H]3CCN(C[C@H](O)COc4cccc5[nH]ccc45)[C@@H](C)C3)cc12,8.48%,4.96%,8.75 nM,0.44 nM,6.85 nM,
COc1cccc2sc([C@@H]3C[C@H]4CC[C@@H](C3)N4C[C@H](O)COc3cccc4[nH]ccc34)cc12 (stereo in doubt; endo) [listing 1 of 2 here],,,,,,> 50%
COc1cccc2sc([C@@H]3C[C@H]4CC[C@@H](C3)N4C[C@H](O)COc3cccc4[nH]ccc34)cc12 (stereo in doubt; exo) [listing 2 of 2 here],,,18.7 nM,1.31 nM,15.7 nM,
COc1cccc2sc([C@@H]3CCN(C[C@H](O)COc4cccc5[nH]ccc45)[C@H](C)C3)cc12,1.2%,2.01%,,,,
C[C@H]1C[C@H](c2cc3ccc(F)cc3s2)CCN1C[C@H](O)COc1cccc2[nH]ccc12,5.32%,9%,7.45 nM,0.31 nM,5.52 nM,
C[C@@H]1C[C@@H](c2cc3cc(F)ccc3s2)CCN1C[C@H](O)COc1cccc2[nH]ccc12,6.35%,10.5%,16.7 nM,0.99 nM,11.7 nM,
C[C@H]1C[C@H](c2cc3ccc(Cl)cc3s2)CCN1C[C@H](O)COc1cccc2[nH]ccc12,8.49%,7.99%,11.7 nM,1.1 nM,24.8 nM,
O[C@H](COc1cccc2[nH]ccc12)CN1[C@@H]2CC[C@H]1C[C@H](c1cc3ccccc3s1)C2,9.26%,9.4%,70.1 nM,0.07 nM,30.5 nM,
C[C@H]1C[C@H](c2cc3cccc(F)c3s2)CCN1C[C@H](O)COc1cccc2[nH]ccc12,2.66%,6.8%,4.23 nM,3.47 nM,21.9 nM,
C[C@H]1C[C@H](c2cc3c(C(F)(F)F)cccc3s2)CCN1C[C@H](O)COc1cccc2[nH]ccc12,,,,3.46 nM,24.2 nM,
COc1cccc2sc([C@H]3CCN(C[C@H](O)COc4cccc5[nH]ccc45)[C@@H](C)C3)cc12,1.38%,1.43%,,,,
Cc1ccc2cc([C@@H]3CCN(C[C@H](O)COc4cccc5[nH]ccc45)[C@@H](C)C3)sc2c1,,,,2.24 nM,,< 50%
C[C@H]1C[C@@H](c2cc3cc(F)ccc3s2)CCN1C[C@H](O)COc1cccc2[nH]ccc12,3.24%,7.87%,16.5 nM,4.22 nM,36.8 nM,
C[C@H]1C[C@H](c2cc3ccccc3s2)CCN1C[C@H](O)COc1cccc2[nH]ccc12,6.32%,7.5%,3.28 nM,0.51 nM,3.09 nM,
COc1ccc2sc([C@@H]3CCN(C[C@H](O)COc4cccc5[nH]ccc45)[C@@H](C)C3)cc2c1OC,8.38%,4.8%,0.98 nM,10.8 nM,1.3 nM,
COc1cccc2sc([C@@H]3CCN(C[C@H](O)COc4cccc5[nH]ccc45)[C@@H](C)C3)cc12,7.77%,,,,,
COc1cccc2sc([C@@H]3C[C@H]4CC[C@@H](C3)N4C[C@H](O)COc3cccc4[nH]ccc34)cc12 (stereo in doubt; endo) [listing 2 of 2 here],,,,0.17 nM,,
C[C@H]1C[C@H](c2cc3c(F)cccc3s2)CCN1C[C@H](O)COc1cccc2[nH]ccc12,5.37%,7.44%,4.88 nM,1.16 nM,,
C[C@H]1C[C@H](c2cc3c(Cl)cccc3s2)CCN1C[C@H](O)COc1cccc2[nH]ccc12,,,,0.69 nM,,< 50%
Cc1cc(C)c2cc([C@@H]3CCN(C[C@H](O)COc4cccc5[nH]ccc45)[C@@H](C)C3)sc2c1,,,,1.93 nM,94.9 nM,
COc1cccc2sc([C@H]3CCN(C[C@H](O)COc4cccc5[nH]ccc45)[C@H](C)C3)cc12,4.41%,5.97%,,,,
